27 compounds from ChEMBL document CHEMBL3769307, “Selective inhibitors of phosphodiesterases: therapeutic promise for neurodegenerative disorders” (Medchemcomm, 2015) can be followed below.

pIC50: −log10 of the molar value.

Sequence of High affinity 3',5'-cyclic-AMP phosphodiesterase 7A (Q13946 whole entry): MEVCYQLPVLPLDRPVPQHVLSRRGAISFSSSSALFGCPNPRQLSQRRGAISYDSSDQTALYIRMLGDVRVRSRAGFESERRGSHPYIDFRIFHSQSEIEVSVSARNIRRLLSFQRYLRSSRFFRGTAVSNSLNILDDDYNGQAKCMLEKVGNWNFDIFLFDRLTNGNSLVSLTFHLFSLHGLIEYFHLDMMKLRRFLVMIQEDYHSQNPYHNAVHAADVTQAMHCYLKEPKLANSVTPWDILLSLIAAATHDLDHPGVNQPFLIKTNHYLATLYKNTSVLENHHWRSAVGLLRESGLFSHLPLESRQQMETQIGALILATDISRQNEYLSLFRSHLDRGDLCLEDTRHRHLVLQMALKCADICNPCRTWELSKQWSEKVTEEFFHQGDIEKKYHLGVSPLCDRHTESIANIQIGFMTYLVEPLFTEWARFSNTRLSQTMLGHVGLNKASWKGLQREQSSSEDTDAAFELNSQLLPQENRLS

The first experiment deals with cGMP-specific 3',5'-cyclic phosphodiesterase (Homo sapiens, UniProt O76074). Description: Inhibition of PDE5 (unknown origin).
With `COc1ccc(CNc2c(CO)cnc3c(NCCN(C)C)cc(C#N)cc23)cc1Cl`, the pIC50 was 9.57.
Turning to `COc1ccc(CNc2c(CO)cnc3c(N4CCOCC4)cc(C#N)cc23)cc1Cl`, the pIC50 was 9.57.
The compound `COc1ccc(CNc2c(CO)cnc3c(NC4CC4)cc(C#N)cc23)cc1Cl` gave a pIC50 of 9.57.
Still for that read-out and setting: for `CCNc1cc(C#N)cc2c(NCc3ccc(OC)c(Cl)c3)c(CO)cnc12` the value was 9.57.
`COc1ccc(CNc2c(CO)cnc3c(N(C)C)cc(C#N)cc23)cc1Cl` showed a pIC50 of 9.57.

The target of another experiment is 3',5'-cyclic-AMP phosphodiesterase 4D (Homo sapiens, UniProt Q08499). Description: Inhibition of PDE4D3 (unknown origin).
Sequence of 3',5'-cyclic-AMP phosphodiesterase 4D (Q08499 whole entry): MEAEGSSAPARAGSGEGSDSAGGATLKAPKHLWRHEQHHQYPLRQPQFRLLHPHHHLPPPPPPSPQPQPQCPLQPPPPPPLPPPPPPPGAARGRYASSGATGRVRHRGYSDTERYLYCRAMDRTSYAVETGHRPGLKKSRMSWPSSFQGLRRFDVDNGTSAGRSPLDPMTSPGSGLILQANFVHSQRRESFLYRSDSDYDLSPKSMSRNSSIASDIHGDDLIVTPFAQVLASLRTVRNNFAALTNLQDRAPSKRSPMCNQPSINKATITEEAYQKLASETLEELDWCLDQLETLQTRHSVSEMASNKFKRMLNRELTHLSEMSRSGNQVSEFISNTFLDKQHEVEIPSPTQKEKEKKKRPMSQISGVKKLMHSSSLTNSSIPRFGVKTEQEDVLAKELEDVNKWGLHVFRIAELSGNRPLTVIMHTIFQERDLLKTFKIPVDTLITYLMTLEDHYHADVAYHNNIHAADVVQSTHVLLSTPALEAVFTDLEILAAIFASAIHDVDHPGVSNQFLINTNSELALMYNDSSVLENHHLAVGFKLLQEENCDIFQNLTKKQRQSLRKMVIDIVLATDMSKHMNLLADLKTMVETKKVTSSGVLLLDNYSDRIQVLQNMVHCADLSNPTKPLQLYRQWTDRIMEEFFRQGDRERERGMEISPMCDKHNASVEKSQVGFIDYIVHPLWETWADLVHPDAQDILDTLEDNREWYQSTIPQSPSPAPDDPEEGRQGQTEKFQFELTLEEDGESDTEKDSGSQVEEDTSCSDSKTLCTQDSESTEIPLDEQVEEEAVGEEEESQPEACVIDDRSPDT
As for `COc1ccc([C@@H]2CNC(=O)[C@@H](Cc3cccc(C)c3)C2)cc1OC1CCCC1`, the pIC50 is 6.82.

System in the next experiment: not listed separately
Description: Inhibition of PDE9 (unknown origin). More on the design: species or system Homo sapiens.
With `C[C@H](Cc1nn2c(-c3ccccc3Cl)ncc2c(=O)[nH]1)C(F)(F)F`, the pIC50 was 7.26.

Another experiment concerns the target High affinity 3',5'-cyclic-AMP phosphodiesterase 7A (Homo sapiens, UniProt Q13946). Description: Inhibition of PDE7A (unknown origin).
Regarding `O=c1c2ccccc2[nH]c(=S)n1-c1ccccc1`, the pIC50 was 5.26.

System in another experiment: not listed separately
Description: Inhibition of cGMP stimulated pig PDE2A. More on the design: species or system Sus scrofa.
Compound `CCCCCC[C@H]([C@H](C)O)n1cnc2c(N)ncnc21` (relative stereo) [(+)-EHNA] showed a pIC50 of 5.70.

System in another experiment: not listed separately
Description: Inhibition of cGMP activated PDE2 (unknown origin). More on the design: species or system Homo sapiens.
The compound `COc1ccc(Cc2nc3c(ncn3C(CCCc3ccccc3)C(C)=O)c(=O)[nH]2)cc1OC` (centres undefined) showed a pIC50 of 9.22.
Same read-out and setting: for `CCCCCC[C@H]([C@H](C)O)n1cnc2c(N)ncnc21` (relative stereo) [(+)-EHNA] the value was 6.15.

The target in a further experiment is Phosphodiesterase 4 (Homo sapiens, UniProt P27815+Q08499+Q07343+Q08493). Description: Inhibition of PDE4 (unknown origin). It counts as protein assay.
For `O=C(NC1CCC1)c1cn(-c2cccc(-c3ccc([C@@H]4C[C@H]4C(=O)O)cc3)c2)c2ncccc2c1=O` (relative stereo), the half-inhibitory concentration (IC50) worked out at 0.52 nM.
Compound `O=C(NC1CC1)c1cn(-c2cccc(-c3cccc([C@@H]4C[C@H]4C(=O)O)c3)c2)c2ncccc2c1=O` had an IC50 of 0.54 nM.
On the same count and under the same terms, the figure for `O=C(NC1CC1)c1cn(-c2cccc(-c3ccc([C@@H]4C[C@H]4C(=O)O)cc3)c2)c2ncccc2c1=O` (relative stereo) is 0.57 nM; for `O=C(NC1CC1)c1cn(-c2cccc(-c3ccc([C@@H]4C[C@H]4c4nnn[nH]4)cc3)c2)c2ncccc2c1=O` (relative stereo) it is 0.55 nM; for `O=C(NC1CC1)c1cn(-c2cccc(-c3ccccc3[C@@H]3C[C@H]3C(=O)O)c2)c2ncccc2c1=O` (relative stereo) it is 4.6 nM.
Same read-out and setting: the figure for `CC(C)(C)NC(=O)c1cn(-c2cccc(-c3ccc([C@@H]4C[C@H]4C(=O)O)cc3)c2)c2ncccc2c1=O` (relative stereo) is 32 nM; for `CC(C)(CC(=O)O)c1ccc(-c2cccc(-n3cc(C(=O)NC4CC4)c(=O)c4cccnc43)c2)cc1` it is 0.85 nM; for `O=C(NCC1CC1)c1cn(-c2cccc(-c3ccc([C@@H]4C[C@H]4C(=O)O)cc3)c2)c2ncccc2c1=O` (relative stereo) it is 0.35 nM.
Turning to `O=C(NC1CC1)c1cn(-c2cccc(-c3ccc([C@@H]4C[C@@H]4C(=O)O)cc3)c2)c2ncccc2c1=O` (relative stereo), the IC50 is recorded as 1.6 nM.
Same read-out and setting: the figure for `O=C(NC1CC1)c1cn(-c2cccc(-c3ccc([C@@H]4C[C@@H]4C(=O)O)c(F)c3)c2)c2ncccc2c1=O` (relative stereo) is 0.53 nM; for `CC1(NC(=O)c2cn(-c3cccc(-c4ccc([C@@H]5C[C@H]5C(=O)O)cc4)c3)c3ncccc3c2=O)CC1` (relative stereo) it is 0.58 nM.
On the same count and under the same terms, for `O=C(NC1(O)CC1)c1cn(-c2cccc(-c3ccc([C@@H]4C[C@H]4C(=O)O)cc3)c2)c2ncccc2c1=O` (relative stereo) the value was 17 nM.
`CC(C)(Cc1ccc(-c2cccc(-n3cc(C(=O)NC4CC4)c(=O)c4cccnc43)c2)cc1)C(=O)O` showed an IC50 of 0.88 nM.
`CC(C)(c1cc(-c2cccc(-c3ccc([C@@H]4C[C@H]4C(=O)O)cc3)c2)c2ncccc2c1)S(C)(=O)=O` (relative stereo) returned an IC50 of 0.32 nM.
Take `O=C(NC1CC1)c1cn(-c2cccc(C#Cc3ccc[n+]([O-])c3)c2)c2ncccc2c1=O` [MK-0873]: the IC50 was 5.1 nM.
For the compound `CCCCCC[C@H]([C@H](C)O)n1cnc2c(N)ncnc21` (relative stereo) [(+)-EHNA], the 50% inhibitory concentration (IC50) came to 1700 nM.
In turn, `O=C(NCC(F)(F)F)c1cn(-c2cccc(-c3ccc([C@@H]4C[C@H]4C(=O)O)cc3)c2)c2ncccc2c1=O` (relative stereo) gave an IC50 of 0.51 nM.

System in the next experiment: not listed separately
Description: Inhibition of bovine PDE2. More on the design: species or system Bos taurus.
Regarding `COc1ccc(Cc2nc(O)c3c(C)nc([C@@H](CCCc4ccccc4)[C@@H](C)O)n3n2)cc1OC`, the pIC50 is 8.70.
